The source of these data is patent US5852008A, “Heteroatom substituted benzoyl derivatives that enhance synaptic response mediated by receptors” (The Regents of the University of California, priority 1995, dated 1998).

Read-outs that look alike come from different tables or passages of the source.

For data set [1], the system named is AMPA receptors. Description: Field EPSP in rat hippocampal slices (field CA1): amplitude and area of AMPA receptor-mediated synaptic responses. In kind it is cell-based, rat (Sprague-Dawley). The protocol:
The physiological effects of invention compounds can be tested in vitro with slices of rat hippocampus as follows. Excitatory responses (field EPSPs) are measured in hippocampal slices which are maintained in a recording chamber continuously perfused with artificial cerebrospinal fluid (ACSF).
To conduct these tests, the hippocampus was removed from anesthetized, 2 month old Sprague-Dawley rats and in vitro slices (400 micrometers thick) were prepared and maintained in an interface chamber at 35° C. using conventional techniques [see, for example, Dunwiddie and Lynch, J. Physiol. Vol. 276: 353-367 (1978)]. The chamber was constantly perfused at 0.5 ml/min with ACSF containing (in mM): NaCl 124, KCl 3, KH2 PO4 1.25, MgSO4 2.5, CaCl2 3.4, NaHCO3 26, glucose 10 and L-ascorbate 2. A bipolar nichrome stimulating electrode was positioned in the dendritic layer (stratum radiatum) of the hippocampal subfield CA1 close to the border of subfield CA3.
Current pulses (0.1 msec) through the stimulating electrode activate a population of the Schaffer-commissural (SC) fibers which arise from neurons in the subdivision CA3 and terminate in synapses on the dendrites of CA1 neurons. Activation of these synapses causes them to release the transmitter glutamate. Glutamate binds to the postsynaptic AMPA receptors which then transiently open an associated ion channel and permit a sodium current to enter the postsynaptic cell. This current results in a voltage in the extracellular space (the field excitatory postsynaptic potential or field "EPSP") which is recorded by a high impedance recording electrode positioned in the middle of the stratum radiatum of CA1.
For the experiments summarized in FIG. 1, the intensity of the stimulation current was adjusted to produce half-maximal EPSPs (typically about 1.5-2.0 mV). Paired stimulation pulses were given every 40 sec with an interpulse interval of 200 msec (see below). The field EPSPs of the second response were digitized and analyzed to determine amplitude, half-width, and response area. If the responses were stable for 15-30 minutes (baseline), test compounds were added to the perfusion lines for a period of about 15 minutes. The perfusion was then changed back to regular ACSF.
Paired-pulse stimulation was used since stimulation of the SC fibers, in part, activates interneurons which generate an inhibitory postsynaptic potential (IPSP) in the pyramidal cells of CA1. This feed forward IPSP typically sets in after the EPSP reaches its peak. It accelerates the repolarization and shortens the decay phase of the EPSP, and thus could partially mask the effects of the test compounds. One of the relevant features of the feed-forward IPSP is that it can not be reactivated for several hundred milliseconds following a stimulation pulse. This phenomenon can be employed to advantage to eliminate IPSP by delivering paired pulses separated by 200 milliseconds and using the second ("primed") response for data analysis.
These effects are mirrored in the field EPSP, as reported in the literature [see, for example, Staubli et al., Psychobiology supra; Xiao et al., Hippocampus supra; Staubli et al., Hippocampus Vol. 2: 49-58 (1992)].
The variables set forth in the table refer to the following generic structure: [drawing 33]

Data set [2] deals with AMPA receptor. The settings on record: cited from earlier work.
A short description of data set [3]: PET biodistribution of 11C-labelled Invention Compound II after i.p. injection. An excerpt:
To test the ability of invention compounds to pass the blood-brain barrier, Invention Compound II was labelled with carbon-11.
Radiolabelled Invention Compound II (see the table above) is synthesized by the following scheme (wherein the numbers in parenthesis refer to the quantity of reagent used, in millimoles): [drawing 34] wherein Ar is aryl (such as methylenedioxybenzene), Im is imidazole (thus, ImHCl is imidazole hydrochloride), and R is an alkyl or alkylene radical (so that R2 NH is, for example, piperidine). ^11 C-labelled CO2 is produced by cyclotron irradiation and subsequently used in the above-described synthetic scheme. The time to complete the synthesis is about […] ([…] the half-life of carbon-11). After purification of [^11 C]II on C18 Sep Pak, 260 μCi was diluted with 20 mg of nonradioactive II as carrier in a 1-ml solution of 23% propylene glycol and 10% ethanol in physiologically-buffered saline in order to simulate the dosage of 100 mg/Kg that was used in behavioral studies. The final 1 ml of solution was administered to a 200 g rat under halothane anesthesia (1.4-1.7% in oxygen) by intraperitoneal (i.p.) injection.
Biodistribution of the radiotracer in the body of the rat was monitored by a positron camera (Scanditronix PC2048-15B) and the time-activity curves were constructed using a Vax 3500 (Digital Equipment Corporation) and shown in FIG. 5.

Where [4] appears, read: read-out: EC50 (field EPSP amplitude); percent increase in field EPSP amplitude; log dose/response; maximal response of 85% increase assumed where solubility was limiting.
Setting [5] is: percent increase in field EPSP amplitude; log dose/response; maximal response of 85% increase assumed where solubility was limiting; read-out: EC50 (field EPSP amplitude).
Setting [6] is: after i.p. injection, 100 mg/kg.

By EC50 is commonly meant the concentration needed to bring the measured effect to its halfway point.

In the case of `O=C1CCCC1C(=O)c1ccc2c(c1)OCO2` (centres unmarked) [Invention Compound IV], in data set [1] (setting [4]), the EC50 came out at 0.9 mM. As for `O=C(c1ccc2c(c1)OCO2)N1CCCCCC1` [Invention Compound VII, 1-(1,3-benzodioxol-5-ylcarbonyl)-hexamethyleneimine], in data set [1] (setting [5]), the EC50 worked out at 4 mM. On to `O=C1CCCN1C(=O)c1ccc2c(c1)OCO2` [Invention Compound XVI], for which the EC50 in data set [1] (setting [4]) came to 2 mM. Turning to `O=C(c1ccc2[nH]cnc2c1)N1CC=CCC1` [Invention Compound XII], the EC50 in data set [1] (setting [5]) is 5 mM. Same read-out and setting: then `O=C(c1ccc2ncoc2c1)N1CC=CCC1` [Invention Compound XI], with 3 mM. Still for that read-out and setting: then `O=C(c1ccc2ocnc2c1)N1CC=CCC1` [Invention Compound IX], with 4 mM; and `CC1Oc2ccc(C(=O)N3CCCCC3)cc2O1` (racemic) [Invention Compound V, (R,S)-1-(2-methyl-1,3-benzodioxol-5-ylcarbonyl)-piperidine], with 1.1 mM. For `O=C(c1ccc2nccnc2c1)N1CCCCC1` [Invention Compound XIV, 1-(quinoxalin-6-ylcarbonyl)-piperidine], in data set [1] (setting [5]), the EC50 worked out at 0.3 mM. With `COc1ccc(C(=O)NCCCC(=O)O)cc1` [anisoyl-GABA], the aniracetam-like effects result in data set [2] (metabolite of aniracetam) is recorded as “no aniracetam-like effects”.

Regarding `O=C(c1ccc2c(c1)OCO2)N1CC=CCC1` [Invention Compound III, 1-(1,3-benzodioxol-5-ylcarbonyl)-1,2,3,6-tetrahydropyridine], the EC50 in data set [1] (setting [5]) was found to be 0.8 mM. On to `O=C(c1ccc2c(c1)OCO2)N1CCCC1` [Invention Compound VI, 1(1,3-Benzodioxol-5-ylcarbonyl)-pyrrolidine], for which, in data set [1] (setting [5]), the EC50 came out at 1.2 mM.

For the compound `CN(C)c1ccc(C(=O)N2CC=CCC2)cc1` [Invention Compound XV, N-(4-dimethylamino)benzoyl-1,2,3,6-tetrahydropyridine], in data set [1] (setting [5]), the EC50 was 1.7 mM. Take `COc1ccc(C(=O)N2CC[C@@H](O)C2=O)cc1` [(R)-1-p-anisoyl-3-hydroxy-2-pyrrolidinone]: the “facilitation of AMPA receptor mediated responses” value in data set [2] (nootropics tested in slices) was “facilitate AMPA receptor mediated responses”.

For the compound `O=C(c1ccc2c(c1)OCO2)N1CCCCC1` [Invention Compound II, 1-(1,3-benzodioxol-5-ylcarbonyl)-piperidine], in data set [3] (setting [6]), the “time of peak uptake in brain” value is reported as “about 5 minutes”, the “time of peak uptake in heart” value is “about 5 minutes”, the “time of peak uptake in liver” value is reported as “about 3 minutes” and the “time of peak uptake in soft tissues” value is given as “about 17 minutes”. Also, the “passage through the blood-brain barrier” value in data set [3] (i.p.) is “passes freely through the blood-brain barrier”. For the same compound, in data set [3] (rat, in vivo, ip), the “brain distribution relative to head excluding the cranial cavity” value is listed as “approximately equal to that of the head excluding the cranial cavity”; the “decline of levels in liver after peak” value was “declined markedly for the first 5 minutes after peaking and then more gradually”; the “decline of levels in the other three tissues (heart, brain, soft tissue) after peak” value is recorded as “declined very gradually after peaking”; the “entry into and residence in brain (target tissue)” value is “relatively rapid and stayed in the brain for an extended period”. For the same compound, the “order of tissue uptake” value in data set [3] (rat, in vivo, ip) is given as “liver showed the maximum uptake, followed by heart”. Moreover, the EC50 in data set [1] (setting [5]) came out at 1.5 mM. For `O=C(c1ccc2c(c1)OCCO2)N1CC=CC1` [Invention Compound VIII], in data set [1] (setting [5]), the EC50 worked out at 3 mM. In the case of `O=C(c1ccc2nccnc2c1)N1CC=CCC1` [Invention Compound XIII, 1-(quinoxalin-6-ylcarbonyl)-1,2,3,6-tetrahydropyridine], the EC50 in data set [1] (setting [5]) was 0.05 mM.
